This note sets out measurements from patent US20220273739A1, “COMBINATION DRUG FOR TREATING MALIGNANT TUMOR, PHARMACEUTICAL COMPOSITION FOR TREATING MALIGNANT TUMOR, AND PHARMACEUTICAL COMPOSITION FOR MALIGNANT TUMOR TREATMENT” (priority 2019, published 2022).

This experiment concerns murine squamous cell carcinoma (SCC VII). In words: Antitumor effect (tumor size) in both-side side-abdomen implanted SCC VII tumor-bearing mice. Conditions: for antitumor effect (tumor size), tumor with administration of the drug (treated group): FIG. 1A, intratumoral administration on Day 0, 3, 6, compared to MOCK (saline solution), C-REV 1×10^6 pfu/100 μl, cGAMP 20 μg/100 μl; for antitumor effect (tumor size), tumor spaced apart from the tumor with administration of the drug (non-treated group): FIG. 1B / FIG. 2, tumor on opposite side of the abdomen received saline solution only, drug given to the other tumor on Day 0, 3, 6. In kind it is in vivo, C3H/He Slc mice. The text has this: Six-week-old female C3H/He Slc mice (purchased from Chubu Kagaku Shizai Co., Ltd.) were used as mice. A tumor of murine squamous cell carcinoma (SCC VII; given by professor Shin-ichiro Masunaga, Kyoto University Institute for Integrated Radiation and Nuclear Science) was cut into 2 mmcubes, and two of the cubes were implanted under the skin on both sides of the abdomen of the mice by a tumor implantation needle (both-side side-abdomen implanted model). When the size of the tumor reached the size of 100 mm^3, grouping was performed. Although differing among the mice, one tumor end and the other tumor end were spaced apart from each other by about 10 mm.
First medicine: C-REV was suspended in a saline solution to obtain a concentration of 1×10^6 pfu/100 μl.
Second medicine: 2′3′-cGAMP (No. tlrl-nacga23 by Invivogen) was dissolved and suspended in a saline solution to obtain a concentration of 20 μg/100 μl.
Day 0: The first medicine of 100 μl was administered to a tumor (treated group) on one side of the abdomen. Further, a saline solution of 100 μl was administered to a tumor (non-treated group) on the other side of the abdomen. Day 3: The second medicine of 100 μl was administered to a tumor (treated group) on one side of the abdomen. Further, a saline solution of 100 μl was administered to a tumor (non-treated group) on the other side of the abdomen. Day 6: The second medicine of 100 μl was administered to a tumor (treated group) on one side of the abdomen. Further, a saline solution of 100 μl was administered to a tumor (non-treated group) on the other side of the abdomen.
The tumor size was calculated from multiplication of the longer diameter by the shorter diameter by the shorter diameter by 1/2 of a tumor.
The experiment was performed in the same procedure as for Example 1 except for administration of a saline solution of 100 μl on Day 3 and Day 6 instead of the administration of the second medicine to the treated group.
The experiment was performed in the same procedure as for Example 1 except for administration of the second medicine on Day 0 instead of the administration of the first medicine to the treated group and except for administration of a saline solution of 100 μl on Day 3 and Day 6 instead of the administration of the second medicine to the treated group.
The experiment was performed in the same procedure as for Example 1 except for administration of a saline solution of 100 μl on Day 0 instead of the administration of the first medicine to the treated group and except for administration of a saline solution of 100 μl on Day 3 and Day 6 instead of the administration of the second medicine to the treated group.
The experiment was performed in the same procedure as for Example 1 except for use of the hrR3 instead of the C-REV as the first medicine. […]

For the compound `Nc1nc2c(ncn2[C@@H]2O[C@@H]3COP(=O)(O)O[C@H]4[C@@H](O)[C@H](n5cnc6c(N)ncnc65)O[C@@H]4COP(=O)(O)O[C@@H]2[C@@H]3O)c(=O)[nH]1` [cGAMP, 2′3′-cyclic GMP-AMP], the “antitumor effect (tumor size), tumor with administration of the drug (treated group)” value was “an antitumor effect was developed” and the “antitumor effect (tumor size), tumor spaced apart from the tumor with administration of the drug (non-treated group)” value was “almost no antitumor effect”.
On the same counts, the results for Canerpaturev [C-REV] are “an antitumor effect was developed” and “almost no antitumor effect”.
